Our source for the IC50 values is US20240417405A1, “Substituted Spiro Derivatives” (Janssen Pharmaceutica NV, priority 2021, published 2024).

In experiment [1] the test system is MOLM14 cells. The experiment is described as follows: Proliferation assay, spheroid-like growth, MOLM14 (MLL-AF9 rearranged). In kind it is cell-based, human. To be noted: 8 days, confluence as measure of spheroid size, read-out: spheroid assay_OneTime MOLM14 IC50. In a few lines: (§1)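 200 MOLM14 or 300 KO-52 cells/well, ultra-low attachment, compound dilutions, DMSO 0.3%; 8 d, 37 °C, 5% CO2. Read: live-cell imaging confluence (spheroid size) day 8. Absolute IC50, min 0%/max 100% fixed, variable slope.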

Experiment [2] deals with KO-52 cells. As to the kind of experiment: Proliferation assay, spheroid-like growth, KO-52 (MLL wildtype control cell line). In kind it is cell-based, human. To be noted: KO-52 control cells, 8 days, confluence as measure of spheroid size, read-out: spheroid assay_OneTime KO-52 IC50. In a few lines:
as §1

Experiment [3] concerns the target T1, menin/MLL (terbium chelate-labeled menin, FITC-MBM1 peptide) (Homo sapiens, UniProt O00255, T541A).
T1 construct: Menin (a.a 1-610-6xhis tag)
T1 sequence (O00255 with tags, fused parts or gaps T541A): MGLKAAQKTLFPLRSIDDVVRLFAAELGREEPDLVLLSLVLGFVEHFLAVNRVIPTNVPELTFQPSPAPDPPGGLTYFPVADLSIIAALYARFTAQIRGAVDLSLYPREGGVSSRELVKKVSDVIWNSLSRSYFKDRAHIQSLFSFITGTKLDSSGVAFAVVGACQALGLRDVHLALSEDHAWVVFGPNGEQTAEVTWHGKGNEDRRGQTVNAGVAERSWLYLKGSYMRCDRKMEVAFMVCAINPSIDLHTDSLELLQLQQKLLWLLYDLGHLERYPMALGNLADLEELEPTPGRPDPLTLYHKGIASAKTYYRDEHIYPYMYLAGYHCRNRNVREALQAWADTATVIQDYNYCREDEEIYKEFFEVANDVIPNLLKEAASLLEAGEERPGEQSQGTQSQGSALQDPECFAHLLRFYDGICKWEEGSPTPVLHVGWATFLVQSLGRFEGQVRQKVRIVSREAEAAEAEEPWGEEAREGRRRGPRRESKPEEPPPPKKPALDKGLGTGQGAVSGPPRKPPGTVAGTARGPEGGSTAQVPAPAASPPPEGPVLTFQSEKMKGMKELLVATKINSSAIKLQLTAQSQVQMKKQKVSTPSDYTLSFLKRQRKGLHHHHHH
As to the kind of experiment: Menin/MLL homogenous time-resolved fluorescence (HTRF) assay. The format is binding. To be noted: 30 min incubation. The essentials:
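Tb-cryptate menin (1-610, 6xHis) 200 pM + cmpd, 30 min RT; + FITC-MBM1 75 nM, 15 min RT. 40 mM Tris pH 7.5, 50 mM NaCl, 1 mM DTT, 0.05% Pluronic F-127, 0.5% DMSO. HTRF 520/490; 11-pt 4-fold from 10 μM; IC50 fit.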
For orientation: In TR-FRET formats the signal depends on donor and acceptor labels being close together.

pIC50: −log10 of the molar value. Read-outs that look alike come from different tables or passages of the source.

Take `CC(=O)N1CCC2CN([C@H]3C[C@@H]([C@@H](C(C)C)N4CC5(CCN(c6ncnnc6Oc6ccc(F)cc6-c6cncnc6C6CC6)C5)C4)C3)CC21` (single isomer, unassigned) [Compound 58]: the pIC50 (usually the IC50 on a negative log10 scale, so that one unit is a factor of ten) in experiment [1] was 7.72; in experiment [2], below 4.82; in experiment [3], 10.00.

As to `CC(C)[C@H]([C@H]1C[C@H](N2CC3(CCO3)C2)C1)N1CC2(CCN(c3ncnnc3Oc3ccc(F)cc3-c3cncnc3C3CC3)C2)C1` (single isomer, unassigned) [Compound 146], the pIC50 was 6.80 in experiment [1] (Homo sapiens, MOLM-14, 192 h); 5.18 in experiment [2] (Homo sapiens, 192 h); 9.70 in experiment [3].

For `CC(C)[C@@H]([C@H]1C[C@@H](N2CCC(S(C)(=O)=O)CC2)C1)N1CC2(CCN(c3ncnnc3Oc3ccc(F)cc3-c3ncccc3C3CC3)C2)C1` (single isomer, unassigned) [Compound 26], the pIC50 in experiment [1] (Homo sapiens, MOLM-14, 192 h) is below 6.03; in experiment [2] (Homo sapiens, 192 h), below 4.82; in experiment [3], 8.21.

Regarding `CC(C)[C@H]([C@H]1C[C@@H](NC(=O)CC#N)C1)N1CC2(CCN(c3ncnnc3Oc3ccc(F)cc3-c3cncnc3C3CC3)C2)C1` (single isomer, unassigned) [Compound 298], the pIC50 in experiment [1] (Homo sapiens, MOLM-14, 192 h) was 8.22; in experiment [2] (Homo sapiens, 192 h), 5.03; in experiment [3], 10.00.

In the case of `COc1ncc(-c2cc(F)ccc2Oc2nncnc2N2CCC3(C2)CN(C(C(C)C)[C@H]2C[C@@H](NC(C)=O)C2)C3)c(C2CC2)n1` (stereo partly drawn) [Compound 500], the pIC50 in experiment [1] (Homo sapiens, MOLM-14, 192 h) was 7.46; in experiment [2] (Homo sapiens, 192 h), 4.99; in experiment [3], 9.52.

Regarding `CO[C@H]1CCCN([C@H]2C[C@@H]([C@H](C(C)C)N3CC4(CCN(c5ncnnc5Oc5ccc(F)cc5-c5nnccc5C5CC5)C4)C3)C2)C1` (single isomer, unassigned) [Compound 256], the pIC50 is 8.30 in experiment [1] (Homo sapiens, MOLM-14, 192 h); below 4.82 in experiment [2] (Homo sapiens, 192 h); 9.70 in experiment [3].

Regarding `CC(C)[C@H]([C@H]1C[C@@H](N2CCC(F)C(O)C2)C1)N1CC2(CCN(c3ncnnc3Oc3ccc(F)cc3-c3cncnc3C3CC3)C2)C1` (single isomer, unassigned) [Compound 30], the pIC50 in experiment [1] (Homo sapiens, MOLM-14, 192 h) was 7.54; in experiment [2] (Homo sapiens, 192 h), 5.59; in experiment [3], 9.52.

For the molecule `CCOC(=O)c1cnc(N[C@H]2C[C@@H](C(C(C)C)N3CC4(CCN(c5ncnnc5Oc5ccc(F)cc5-c5cncnc5C5CC5)C4)C3)C2)o1` (single isomer, unassigned) [Compound 478], the pIC50 in experiment [1] (Homo sapiens, MOLM-14, 192 h) is 7.92; in experiment [2] (Homo sapiens, 192 h), 5.90; in experiment [3], 9.54.

For `CC(C)[C@@H]([C@H]1C[C@@H](N2CC3(CCO3)C2)C1)N1CC2(CCN(c3ncnnc3Oc3ccc(F)cc3-c3ncncc3C3CC3)C2)C1` (single isomer, unassigned) [Compound 101], the pIC50 in experiment [1] (Homo sapiens, MOLM-14, 192 h) was 8.00; in experiment [2] (Homo sapiens, 192 h) it was 5.97; in experiment [3], 10.00.

Consider `CC(C)[C@H]([C@H]1C[C@@H](NC(=O)C2(F)CC2)C1)N1CC2(CCN(c3ncnnc3Oc3ccc(F)cc3-c3nnccc3C3CC3)C2)C1` (single isomer, unassigned) [Compound 305], for which the pIC50 in experiment [1] (Homo sapiens, MOLM-14, 192 h) was 7.77; in experiment [2] (Homo sapiens, 192 h), 5.24; in experiment [3] it was 9.70.

With `CC(C)[C@@H]([C@H]1C[C@H](N2CC[C@@H](C(=O)N(C)C)C2)C1)N1CC2(CCN(c3ncnnc3Oc3ccc(F)cc3-c3cnncc3C3CC3)C2)C1` (single isomer, unassigned) [Compound 111], the pIC50 was 6.92 in experiment [1] (Homo sapiens, MOLM-14, 192 h); below 4.82 in experiment [2] (Homo sapiens, 192 h); 9.70 in experiment [3].

Regarding `CC(C)C([C@H]1C[C@@H](NC(=O)C2CC2)C1)N1CC2(CCN(c3ncnnc3Oc3ccc(F)cc3-c3cccc(=O)n3C3CC3)C2)C1` (stereo partly drawn) [Compound 189], the pIC50 was 6.85 in experiment [1] (Homo sapiens, MOLM-14, 192 h); below 4.82 in experiment [2] (Homo sapiens, 192 h); 9.40 in experiment [3].

For `CC(C)[C@H]([C@H]1C[C@@H](N2CC[C@@]3(CCN(C)C3=O)C2)C1)N1CC2(CCN(c3ncnnc3Oc3ccc(F)cc3-c3cncnc3C3CC3)C2)C1` (single isomer, unassigned) [Compound 66], the pIC50 in experiment [1] (Homo sapiens, MOLM-14, 192 h) is 8.22; in experiment [2] (Homo sapiens, 192 h), below 4.82; in experiment [3], 10.00.

As to `CO[C@@H]1CCN([C@H]2C[C@@H]([C@@H](C(C)C)N3CC4(CCN(c5ncnnc5Oc5ccc(F)cc5-c5cncnc5C5CC5)C4)C3)C2)C1` (single isomer, unassigned) [Compound 211], the pIC50 is 8.52 in experiment [1] (Homo sapiens, MOLM-14, 192 h); below 4.82 in experiment [2] (Homo sapiens, 192 h); 10.00 in experiment [3].

As to `CC(=O)N[C@H]1C[C@@H]([C@H](C(C)C)N2CC3(CCN(c4ncnnc4Oc4ccc(F)cc4-c4ncncc4C4CC4)C3)C2)C1` (single isomer, unassigned) [Compound 181], the pIC50 is below 6.03 in experiment [1] (Homo sapiens, MOLM-14, 192 h); below 4.82 in experiment [2] (Homo sapiens, 192 h); 7.01 in experiment [3].

Take `CC(C)[C@@H]([C@H]1C[C@]2(COC(=O)N2)C1)N1CC2(CCN(c3ncnnc3Oc3ccc(F)cc3-c3cncnc3C3CC3)C2)C1` (single isomer, unassigned) [Compound 320]: the pIC50 in experiment [1] (Homo sapiens, MOLM-14, 192 h) is 7.55; in experiment [2] (Homo sapiens, 192 h) it was 5.34; in experiment [3], 10.00.

Take `CC(C)[C@@H]([C@H]1C[C@@H](N2CC[C@@H](S(C)(=O)=O)C2)C1)N1CC2(CCN(c3ncnnc3Oc3ccc(F)cc3-c3ncccc3C3CC3)C2)C1` (single isomer, unassigned) [Compound 287]: the pIC50 in experiment [1] (Homo sapiens, MOLM-14, 192 h) is below 6.03; in experiment [2] (Homo sapiens, 192 h) it was below 4.82; in experiment [3], 7.15.

For the molecule `CC(C)C([C@H]1C[C@@H](NC(=O)CCN(C)C)C1)N1CC2(CCN(c3ncnnc3Oc3ccc(F)cc3-c3cncnc3C3CC3)C2)C1` (stereo partly drawn) [Compound 302], the pIC50 is 7.68 in experiment [1] (Homo sapiens, MOLM-14, 192 h); 4.85 in experiment [2] (Homo sapiens, 192 h); 10.00 in experiment [3].

With `CC(C)C([C@H]1C[C@@H](Nc2ncc(C(=O)O)o2)C1)N1CC2(CCN(c3ncnnc3Oc3ccc(F)cc3-c3cncnc3C3CC3)C2)C1` (single isomer, unassigned) [Compound 479], the pIC50 is 6.28 in experiment [1] (Homo sapiens, MOLM-14, 192 h); below 4.82 in experiment [2] (Homo sapiens, 192 h); 8.75 in experiment [3].

For the molecule `CC(C)[C@@H]([C@H]1C[C@@H](N2CCC3(CC2)COC3)C1)N1CC2(CCN(c3ncnnc3Oc3ccc(F)cc3-c3nnccc3C3CC3)C2)C1` (single isomer, unassigned) [Compound 253], the pIC50 in experiment [1] (Homo sapiens, MOLM-14, 192 h) is 8.00; in experiment [2] (Homo sapiens, 192 h), 5.79; in experiment [3] it was 10.00.

Take `CC(=O)N1CC2(C1)CN([C@H]1C[C@@H]([C@@H](C(C)C)N3CC4(CCN(c5ncnnc5Oc5ccc(F)cc5-c5cncnc5C5CC5)C4)C3)C1)C2` (single isomer, unassigned) [Compound 170]: the pIC50 in experiment [1] (Homo sapiens, MOLM-14, 192 h) is 8.30; in experiment [2] (Homo sapiens, 192 h) it was 5.06; in experiment [3], 10.00.

As for `COC1CCN([C@H]2C[C@@H](C(C(C)C)N3CC4(CCN(c5ncnnc5Oc5ccc(F)cc5-c5cncnc5C5CC5)C4)C3)C2)CC1` (stereo partly drawn) [Compound 124], the pIC50 is 7.92 in experiment [1] (Homo sapiens, MOLM-14, 192 h); 5.60 in experiment [2] (Homo sapiens, 192 h); 9.70 in experiment [3].

`CC1CN([C@H]2C[C@@H]([C@@H](C(C)C)N3CC4(CCN(c5ncnnc5Oc5ccc(F)cc5-c5cncnc5C5CC5)C4)C3)C2)CCC1O` (single isomer, unassigned) [Compound 201]: the pIC50 in experiment [1] (Homo sapiens, MOLM-14, 192 h) is 8.22; in experiment [2] (Homo sapiens, 192 h), 5.37; in experiment [3] it was 9.70.

Take `CC(C)[C@H]([C@H]1C[C@@H](N2CCN(C(=O)N(C)C)CC2)C1)N1CC2(CCN(c3ncnnc3Oc3ccc(F)cc3-c3cncnc3C3CC3)C2)C1` (single isomer, unassigned) [Compound 36]: the pIC50 is 8.00 in experiment [1] (Homo sapiens, MOLM-14, 192 h); 5.52 in experiment [2] (Homo sapiens, 192 h); 9.70 in experiment [3].

On to `CC(C)[C@@H]([C@H]1CC[C@@H](NC(=O)C2CC2)C1)N1CC2(CCN(c3ncnnc3Oc3ccc(F)cc3-c3cncnc3C3CC3)C2)C1` (single isomer, unassigned) [Compound 344], for which the pIC50 is 7.27 in experiment [1] (Homo sapiens, MOLM-14, 192 h); 5.80 in experiment [2] (Homo sapiens, 192 h); 10.00 in experiment [3].
